Measured values published in patent US9480688B2, “Pheromone compositions and their use to modify behavior in different vertebrate species” (priority 2011, dated 2016).

Key:
younger pigs = conditions: cited from earlier work
head shy horses = assay: Aerosol spray test on head shy horses, scored 1 through 5; assay type: in vivo, horse; conditions: for Did not work / Partially worked / Worked well: % of horses
Procedure: The spray solution was placed in a pressurized metal aerosol can. In one group of aerosol cans, a noise making device was also added to the aerosol can. The propellant, when forced through small holes upon pressing the nozzle, caused a sound that exceeded 70 decibels. In a second group of aerosol cans, the noise making device was not added to the can, such that when the spray composition was pumped, no noise was made.
The efficacy of an aerosol spray composition containing Androstenone was tested using thirteen adult horses, all of which were enrolled in this study after being evaluated and categorized as head shy and hard to handle (i.e., observed to move their heads away from the handler when the handler attempted to touch their heads with his hand or a halter).
The thirteen horses were sorted into two treatment groups. One group (Group 1) of 10 horses received the Androstenone spray composition outlined in Table 4 and control (CON isopropyl alcohol) with noise (n=10), while the second group (Group 2) received the Androstenone spray and control without noise (n=3).
In each group, the control composition was administered to the horses first and then the Androstenone spray was administered to the horses the following day immediately before the handler attempted to touch their ears and heads. The horses' behavior was then recorded and evaluated after each administration. The horses were given a numerical score of 1 through 5.

anxious dogs = assay: Heart rate of anxious dogs after Androstenone spray (telemetry); assay type: in vivo, dog; conditions: four anxious dogs, 10 minutes following spray with about 0.1 μg/mL Androstenone in isopropyl alcohol
Procedure: A study was conducted to determine whether dogs' heart rate increased following application with an aerosol spray containing Androstenone.
An aerosol spray was prepared which contained about 0.1 μg/mL of Androstenone and isopropyl alcohol using the formulation provided in Example 1.
Four dogs determined to be “anxious” were fit with telemetry jackets and transmitters in order to continually monitor heart rate. Dot heart rates were measured for 10 minutes before treatment, 10 minutes following treatment with a control spray (isopropyl alcohol only), and 10 minutes following treatment with the test spray containing Androstenone and isopropyl alcohol.

weaning foals = assay: Ointment test on weaning foals, behavioral observations; assay type: in vivo, horse
Procedure: A total of 20 foals divided into two groups (Group A, n=10; Group B, n=10) were weaned in pens of similar size and at the same time of the day (9 am), and were evaluated using a control and pheromone compositions. All horses were between 5 and 6 months of age and mixed breeds, primarily quarter horses. An ointment form of the composition comprising Androstenone was prepared in accordance with Table 7 for administering to the horses in this study.
An ointment composition containing a different pheromone, 2-methylbut-2-enal (RP, 1 mg/mL), was also prepared for administration in a comparison study. An ointment containing no pheromone was prepared and used as control (CON). In group A, 5 foals were used for the control treatment, 3 foals were used for the RP treatment, and 2 foals were used for the Androstenone treatment. In group B, 3 foals were used for the control treatment, 3 foals were used for the RP treatment, and 4 foals were used for the Androstenone treatment. As such, a total of 8 foals were used for the control treatment, 6 foals were used for the RP treatment, and 6 foals were used for the Androstenone treatment in this entire study. Both of the pheromone formulations and the control were applied to each nostril. Control treatments were administered first to prevent any cross contamination to horses during day two.
Behavioral observations were taken during the first 10 minutes (Group A and Group B) and then for four hours (Group B only) after the mares were separated from their foals. Foal behavior was recorded every minute during the first hour (or 10 minutes) and every 5 minutes for the remaining 3 hours of the study for Group B.
Behaviors were not mutually exclusive.
The number of shocks received by the electric fence (as foals tried to return to their mare) and vocalizations were recorded continuously. The total number of observations of each defined behaviors over the first 4 hours in Group B is presented in Table 9, which also provides the percentage of each behavior over the total number of recorded number of behaviors.

barking/jumping dogs = assay: Aerosol spray test on barking/jumping dogs in a kennel; assay type: in vivo, dog; conditions: for % Effective (no barking/jumping within 1 minute): 6 dogs
Procedure: An aerosol spray composition comprising Androstenone solution was prepared in accordance with Example 1, but was then diluted in isopropyl alcohol to obtain a 1:1,000 dilution of the original concentration. The purpose of the dilution was to mask the odor of the Androstenone, which can be smelled by humans at high concentrations. The spray solution was placed in a metal aerosol can pressurized with propane. A noise making device was also added to the aerosol can. The propellant, when forced through small holes, caused a sound that exceeded 70 decibels.
The efficacy of an aerosol spray composition containing Androstenone was tested in a commercial research facility housing a large number of dogs. A designated person walked the aisles of the kennel with a calm dog on a leash in order to identify those dogs that met the criteria of barking/jumping. The calm dog on the leash was walked in the center aisle between kennels and also sat outside the kennels. To qualify as a test subject, a dog had to repeatedly jump and bark while the calm dot and the person were in the aisle. A total of 15 dogs were chosen as test subjects.
The dogs were separated into two treatment groups. […] The dogs in treatment group #2 were treated, when observed to be engaging in barking/jumping behavior, with a loud spray canister to which the diluted spray composition containing Androstenone had been added. The test period was for 1 minute.

[1] = Group 1, spray with noise, n=10
[2] = Group 1, spray with noise, n=10, listed as Pheromone
[3] = Group 2, no noise, n=3, listed as Pheromone
[4] = Group B, first 4 hours after weaning
[5] = Group B, first 4 hours after weaning, ointment in each nostril
[6] = first 10 minutes post weaning (n = 20)
[7] = first 10 minutes post weaning, Group A and Group B (n = 20)

For `C[C@]12CCC(=O)C[C@@H]1CC[C@@H]1[C@@H]2CC[C@]2(C)C=CC[C@@H]12` [Androstenone, 5-α-androst-16-en-3-one], the “effect on aggressive behavior” value (younger pigs) is listed as “reduces aggressive behavior”, the “horses showing improvement, either fully or partially, in head shy behavior” value (head shy horses; [1]) is listed as 80% and the Did not work (head shy horses; [1]) is listed as 20%. It also gave a Partially worked (head shy horses; [1]) of 20%, a Worked well (head shy horses; [1]) of 60% and a Did not work (head shy horses; [2]) of 20%. For the same molecule, the Partially worked (head shy horses; [2]) was 20%, the Worked well (head shy horses; [2]) was 60% and the “Avg. Score” value (head shy horses; Group 1, spray with noise, n=10, score 1 (little to no effect) to 5 (easier to handle)) was 3.9. For the same molecule, the “horses showing improvement, either fully or partially, in head shy behavior” value (head shy horses; Group 2, no noise, n=3) was 100%, the Did not work (head shy horses; Group 2, no noise, n=3) was 0% and the Partially worked (head shy horses; Group 2, no noise, n=3) was 33%. It also gave a Worked well (head shy horses; Group 2, no noise, n=3) of 66%, a Partially worked (head shy horses; [3]) of 33% and a Worked well (head shy horses; [3]) of 67%. For the same molecule, the “Avg. Score” value (head shy horses; Group 2, spray with no noise, n=3, score 1 to 5) was 3.9, the “effect on heart rate” value (anxious dogs) was “no significant effect” and the “reduction of head shaking compared to control ointment” value (weaning foals; 4 hour period after weaning) was 100%. For the same molecule, the “reduction of pacing compared to control ointment” value (weaning foals; 4 hour period after weaning) was 100%, the “reduction of trotting/running compared to control ointment” value (weaning foals; 4 hour period after weaning) was 100% and the “increase of feeding behavior compared to control” value (weaning foals; 4 hour period after weaning, % of observations eating hay) was 98%. For the same molecule, the “Percent of observations: defecation” value (weaning foals; [4]) was 0.0%, the “Percent of observations: drink” value (weaning foals; [4]) was 0.0% and the “Percent of observations: feeding” value (weaning foals; [4]) was 11.3%. For the same molecule, the “Percent of observations: fight” value (weaning foals; [4]) was 0.0%, the “Percent of observations: head shake” value (weaning foals; [4]) was 0.0% and the “Percent of observations: interact” value (weaning foals; [4]) was 0.8%. The “Percent of observations: lying” value (weaning foals; [4]) was 0.0%, the “Percent of observations: pace” value (weaning foals; [4]) was 0.0% and the “Percent of observations: paw” value (weaning foals; [4]) was 0.0%. The “Percent of observations: shock” value (weaning foals; [4]) was 0.8%, the “Percent of observations: stand” value (weaning foals; [4]) was 58.8% and the “Percent of observations: trot” value (weaning foals; [4]) was 0%. The “Percent of observations: vocal” value (weaning foals; [4]) was 19.0%, the “Percent of observations: walk” value (weaning foals; [4]) was 9.2% and the “Total observations: defecation” value (weaning foals; [5]) was 0. The “Total observations: drink” value (weaning foals; [5]) was 0, the “Total observations: feeding” value (weaning foals; [5]) was 27 and the “Total observations: fight” value (weaning foals; [5]) was 0. For the same molecule, the “Total observations: head shake” value (weaning foals; [5]) was 0, the “Total observations: interact” value (weaning foals; [5]) was 2 and the “Total observations: lying” value (weaning foals; [5]) was 0. The “Total observations: pace” value (weaning foals; [5]) was 0, the “Total observations: paw” value (weaning foals; [5]) was 0 and the “Total observations: shock” value (weaning foals; [5]) was 2. The “Total observations: stand” value (weaning foals; [5]) was 141, the “Total observations: trot” value (weaning foals; [5]) was 0 and the “Total observations: vocal” value (weaning foals; [5]) was 46. For the same molecule, the “Total observations: walk” value (weaning foals; [5]) was 22, the “Percent of observations: trot” value (weaning foals; Group B, first 4 hours after weaning, listed as Pheromone A) was 0.0% and the “Percent of observations: defecation” value (weaning foals; [6]) was 0.0%. The “Percent of observations: drink” value (weaning foals; [6]) was 0.0%, the “Percent of observations: eat” value (weaning foals; [6]) was 0.0% and the “Percent of observations: fight” value (weaning foals; [6]) was 0.0%. The “Percent of observations: head shake” value (weaning foals; [6]) was 0.0%, the “Percent of observations: interact” value (weaning foals; [6]) was 0.0% and the “Percent of observations: lying” value (weaning foals; [6]) was 0.0%. For the same molecule, the “Percent of observations: pace” value (weaning foals; [6]) was 0.0%, the “Percent of observations: paw” value (weaning foals; [6]) was 0.0% and the “Percent of observations: shock” value (weaning foals; [6]) was 0.0%. For the same molecule, the “Percent of observations: stand” value (weaning foals; [6]) was 81.8%, the “Percent of observations: trot” value (weaning foals; [6]) was 0.0% and the “Percent of observations: vocal” value (weaning foals; [6]) was 37.1%. The “Percent of observations: walk” value (weaning foals; [6]) was 18.2%, the “Total observations: defecation” value (weaning foals; [7]) was 0 and the “Total observations: drink” value (weaning foals; [7]) was 0. The “Total observations: eat” value (weaning foals; [7]) was 0, the “Total observations: fight” value (weaning foals; [7]) was 0 and the “Total observations: head shake” value (weaning foals; [7]) was 0. For the same molecule, the “Total observations: interact” value (weaning foals; [7]) was 0, the “Total observations: lying” value (weaning foals; [7]) was 0 and the “Total observations: pace” value (weaning foals; [7]) was 0. The “Total observations: paw” value (weaning foals; [7]) was 0, the “Total observations: shock” value (weaning foals; [7]) was 0 and the “Total observations: stand” value (weaning foals; [7]) was 18. The “Total observations: trot” value (weaning foals; [7]) was 0, the “Total observations: vocal” value (weaning foals; [7]) was 13 and the “Total observations: walk” value (weaning foals; [7]) was 4. The “% Effective (no barking/jumping within 1 minute)” value (barking/jumping dogs; Group 2: loud spray plus Androstenone, aerosol diluted 1:1,000 in isopropyl alcohol, applied in facial/snout region) was 100%, the “% Effective (no barking/jumping within 1 minute)” value (barking/jumping dogs; Group 3: placebo first, then Androstenone spray (re-spray of dogs not responding to placebo)) was 83.5% and the “% Effective (no barking/jumping within 1 minute), overall Androstenone efficacy” value (barking/jumping dogs; all dogs that received the Androstenone spray (11 of 12 responded)) was 91.7%. For the same molecule, the “observed effect on barking/jumping” value (barking/jumping dogs; diluted Androstenone spray, dogs) was “immediate cessation of barking/jumping” and the “time barking/jumping stopped before barking resumed” value (barking/jumping dogs; the one dog that did not respond by the 60 second criterion, after Androstenone spray) was 40 s.
